Where “and” joins values, the source holds several entries; their conditions need not be identical. Equal entries are not always repeated.
Key:
Format in all cases: biochemical
[1] = target: Aurora A (Homo sapiens (Human), UniProt O14965); assay: Wild type kinase screen: Aurora A; conditions: compound at 10 μM, 10 μM ATP, Data 1 and Data 2 duplicates
[2] = target: Aurora B (Homo sapiens (Human), UniProt Q96GD4); assay: Wild type kinase screen: Aurora B; conditions: compound at 10 μM, 10 μM ATP, Data 1 and Data 2 duplicates
[3] = target: AURORA C (Homo sapiens (Human), UniProt Q9UQB9); assay: Wild type kinase screen: AURORA C; conditions: compound at 10 μM, 10 μM ATP, Data 1 and Data 2 duplicates
[4] = target: BMX/ETK (Homo sapiens (Human), UniProt P51813); assay: Wild type kinase screen: BMX/ETK; conditions: compound at 10 μM, 10 μM ATP, Data 1 and Data 2 duplicates
[5] = target: c-Kit (Homo sapiens (Human), UniProt P10721); assay: Wild type kinase screen: c-Kit; conditions: compound at 10 μM, 10 μM ATP, Data 1 and Data 2 duplicates
[6] = target: CAMK2g (Homo sapiens (Human), UniProt Q13555); assay: Wild type kinase screen: CAMK2g; conditions: compound at 10 μM, 10 μM ATP, Data 1 and Data 2 duplicates
[7] = target: DDR2 (Homo sapiens (Human), UniProt Q16832); assay: Wild type kinase screen: DDR2; conditions: compound at 10 μM, 10 μM ATP, Data 1 and Data 2 duplicates
[8] = target: ERK7/MAPK15 (Homo sapiens (Human), UniProt Q8TD08); assay: Wild type kinase screen: ERK7/MAPK15; conditions: compound at 10 μM, 10 μM ATP, Data 1 and Data 2 duplicates
[9] = target: GSK3b (Homo sapiens (Human), UniProt P49841); assay: Wild type kinase screen: GSK3b; conditions: compound at 10 μM, 10 μM ATP, Data 1 and Data 2 duplicates
[10] = target: LIMK1 (Homo sapiens (Human), UniProt P53667); assay: Wild type kinase screen: LIMK1; conditions: compound at 10 μM, 10 μM ATP, Data 1 and Data 2 duplicates
[11] = target: MAPKAPK2 (Homo sapiens (Human), UniProt P49137); assay: Wild type kinase screen: MAPKAPK2; conditions: compound at 10 μM, 10 μM ATP, Data 1 and Data 2 duplicates
[12] = target: MELK (Homo sapiens (Human), UniProt Q14680); assay: Wild type kinase screen: MELK; conditions: compound at 10 μM, 10 μM ATP, Data 1 and Data 2 duplicates
[13] = target: MLCK/MYLK (Homo sapiens (Human), UniProt Q15746); assay: Wild type kinase screen: MLCK/MYLK; conditions: compound at 10 μM, 10 μM ATP, Data 1 and Data 2 duplicates
[14] = target: NEK2 (Homo sapiens (Human), UniProt P51955); assay: Wild type kinase screen: NEK2; conditions: compound at 10 μM, 10 μM ATP, Data 1 and Data 2 duplicates
[15] = target: PIM3 (Homo sapiens (Human), UniProt Q86V86); assay: Wild type kinase screen: PIM3; conditions: compound at 10 μM, 10 μM ATP, Data 1 and Data 2 duplicates
[16] = target: RIPK4 (Homo sapiens (Human), UniProt P57078); assay: Wild type kinase screen: RIPK4; conditions: compound at 10 μM, 10 μM ATP, Data 1 and Data 2 duplicates
[17] = target: TNIK (Homo sapiens (Human), UniProt Q9UKE5); assay: Wild type kinase screen: TNIK; conditions: compound at 10 μM, 10 μM ATP, Data 1 and Data 2 duplicates
[18] = target: FLT1/VEGFR1 (Homo sapiens (Human), UniProt P17948); assay: Wild type kinase screen: FLT1/VEGFR1; conditions: compound at 10 μM, 10 μM ATP, Data 1 and Data 2 duplicates
[19] = target: Human ACC1 (Homo sapiens (Human), UniProt Q13085); assay: ACC1 enzymatic assay (ADP-Glo); conditions: recombinant human ACC1 5 nM; 10 concentrations from 300 μM; Runs 1-3; read-out: Compound IC50 (M) ACC1
Method: (§1) Human ACC1 (Cat #50202 Lot #120830) and ACC2 (Cat #50201 Lot #160217) were obtained from BPS Biosciences, San Diego, CA 92121. Human ACC1 had C-terminal flag and His-tags with a MW of 270 KDa after purification from Baculovirus infected Sf9 cell expression system and came as a solution in 50 mM Tris-HCl, pH 8.0, 500 mM NaCl, 10% glycerol, 1 mM DTT, 100 μg/ml FLAG peptide with 70% purity. The stock concentration was 0.25 mg/ml corresponding to 0.926 μM. Human ACC2 was also purified from Baculovirus infected Sf9 expression system. […] The stock concentration was 0.1 mg/ml corresponding to 0.36 μM. The assay buffer for measuring the activity of ACC contained: 30 mM HEPES (pH 7.4), 2 mM MgCl2, 0.01% Brij35, 2 mM DTT, 1% DMSO (solvent for compound). For ACC1 and ACC2 assays, the following concentrations of substrate and cofactors were used: 12 mM NaHCO3, 10 μM acetyl CoA, 10 μM ATP, and 2 mM K-citrate. The recombinant human enzyme was used at 5 nM for ACC1 and 1 nM for ACC2. In brief, enzyme alone in the above buffer without substrate was used for background. All test materials were dissolved in 100% DMSO using acoustic technology (Echo550). The prepared solution was preincubated for 15 min followed by the addition of 5 μL/well of ADP standard. ATP was then added to start the reaction. The assay contents were spun and briefly shaken followed by incubation at room temperature for 1 h. At the end of completion of assay, 5 μL of ADP-Glo was added to each well to stop the reaction. The contents were mixed, spun and incubated at room temperature for 40 min followed by the addition of 10 μL/well of ADP detection reagent. The contents were spun, mixed and covered with plastic to measure luminescence. […] The light generated, measured in a luminometer, correlates to the amount of ADP generated in the ACC assay, which is indicative of ACC activity.
(§2) The enzyme concentrations for ACC1 and ACC2 were 5 nM and 1 nM, respectively.
Data represent nM or μM ADP produced, % Activity (relative to no inhibitor controls), and curve fits were performed by GraphPad Prism software. […]

[20] = target: Human ACC2 (Homo sapiens (Human), UniProt O00763); assay: ACC2 enzymatic assay (ADP-Glo); conditions: recombinant human ACC2 1 nM; 10 concentrations from 300 μM; Runs 1-3; read-out: Compound IC50 (M) ACC2
Method: as §1, §2
Data represent nM or μM ADP produced, % Activity (relative to no inhibitor controls), and curve fits were performed by GraphPad Prism software. The IC50 concentration-response curves were generated for both the ACC1 and ACC2 assays using recombinant human ACC.

[21] = target: human ACLY (Homo sapiens (Human), UniProt P53396); assay: ATP-citrate lyase (ACLY) enzymatic assay (ADP-Glo); conditions: recombinant human ACLY; 10 concentrations from 300 μM; Runs 1-3; read-out: Compound IC50 (M) ACLY
Method: ATP citrate lyase was obtained from Sino Biological Inc. Cat #11769-H07B, Lot #LC08DE1701. It was prepared from a DNA sequence encoding the human ACLY (P53396) (Met 1-Met 1101) expressed in Baculovirus-Insect Cells, with a polyhistidine tag at the N-terminus. The recombinant human ACLY consists of 1120 amino acids and has a calculated molecular mass of 123 kDa. It migrates as an approximately 110 kDa band in SDS-PAGE under reducing conditions. The enzyme came as a lyophilized powder in sterile 20 mM Tris, 500 mM NaCl, pH 8.0, 10% glycine. Normally 5%-8% trehalose and mannitol are added as protectants before lyophilization. The recombinant human ACLY from Sino Biological was formulated in 45 mM Tris-HCl, pH 8.0, 124 mM NaCl, 2.4 mM KCl, 18 mM glutathione, 10% glycerol, and 3 mM DTT.
To detect ADP produced from ACL assay, the ADP-Glo™ assay format from Promega, Madison, WI, was used, to detect the conversion of ATP to ADP. […] This assay is performed in two steps: i) after the ACL-mediated enzymatic reaction that utilizes ATP and produces ADP, ADP-Glo™ Reagent is added to terminate the kinase reaction and deplete the remaining ATP, and ii) the Kinase Detection Reagent is added to convert ADP to ATP and allow the newly synthesized ATP to be measured using a luciferase/luciferin reaction. The light generated, measured in a luminometer, correlates to the amount of ADP generated in the ACL assay, which is indicative of ACL activity.
Data represent nM or μM ADP produced, % Activity (relative to no inhibitor controls), and curve fits were performed by GraphPad Prism software. The IC50 concentration-response curves were generated for ADPGlo™ using recombinant human ACL from Sino Biologicals Inc.

GSK3b, sequence (P49841 whole entry, species assumed): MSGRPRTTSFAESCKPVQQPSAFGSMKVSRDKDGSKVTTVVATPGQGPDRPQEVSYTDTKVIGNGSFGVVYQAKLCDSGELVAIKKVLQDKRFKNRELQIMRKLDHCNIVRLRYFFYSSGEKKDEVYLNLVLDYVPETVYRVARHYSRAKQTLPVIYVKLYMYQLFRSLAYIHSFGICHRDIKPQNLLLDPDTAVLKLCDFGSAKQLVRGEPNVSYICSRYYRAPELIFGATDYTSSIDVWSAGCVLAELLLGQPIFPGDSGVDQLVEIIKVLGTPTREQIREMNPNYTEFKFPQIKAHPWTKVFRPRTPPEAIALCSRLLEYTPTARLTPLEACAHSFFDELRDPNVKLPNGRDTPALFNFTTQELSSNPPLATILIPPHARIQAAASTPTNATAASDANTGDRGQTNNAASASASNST
NEK2, sequence (P51955 whole entry, species assumed): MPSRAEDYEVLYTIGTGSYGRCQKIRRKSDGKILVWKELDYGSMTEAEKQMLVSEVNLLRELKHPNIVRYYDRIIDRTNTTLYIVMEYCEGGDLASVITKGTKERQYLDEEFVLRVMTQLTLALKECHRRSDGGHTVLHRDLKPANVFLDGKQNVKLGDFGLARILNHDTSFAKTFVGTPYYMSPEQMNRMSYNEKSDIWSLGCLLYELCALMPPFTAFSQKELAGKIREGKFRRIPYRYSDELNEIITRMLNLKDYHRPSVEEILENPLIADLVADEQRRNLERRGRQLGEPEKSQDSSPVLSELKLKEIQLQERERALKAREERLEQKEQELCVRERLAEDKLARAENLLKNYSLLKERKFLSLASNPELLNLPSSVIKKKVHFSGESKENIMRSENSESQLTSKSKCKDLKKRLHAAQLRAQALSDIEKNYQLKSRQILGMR
Aurora A, sequence (O14965 whole entry): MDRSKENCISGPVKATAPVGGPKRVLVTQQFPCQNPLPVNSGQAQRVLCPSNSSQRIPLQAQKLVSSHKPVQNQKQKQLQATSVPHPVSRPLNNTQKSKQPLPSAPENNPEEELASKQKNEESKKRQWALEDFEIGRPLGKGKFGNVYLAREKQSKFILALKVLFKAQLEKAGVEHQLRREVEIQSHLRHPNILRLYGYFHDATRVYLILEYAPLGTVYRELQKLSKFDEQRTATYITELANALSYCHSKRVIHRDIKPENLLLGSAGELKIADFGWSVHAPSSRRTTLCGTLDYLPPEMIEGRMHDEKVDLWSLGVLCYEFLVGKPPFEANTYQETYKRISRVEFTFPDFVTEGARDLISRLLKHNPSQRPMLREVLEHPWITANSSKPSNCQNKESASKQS
BMX/ETK, sequence (P51813 whole entry): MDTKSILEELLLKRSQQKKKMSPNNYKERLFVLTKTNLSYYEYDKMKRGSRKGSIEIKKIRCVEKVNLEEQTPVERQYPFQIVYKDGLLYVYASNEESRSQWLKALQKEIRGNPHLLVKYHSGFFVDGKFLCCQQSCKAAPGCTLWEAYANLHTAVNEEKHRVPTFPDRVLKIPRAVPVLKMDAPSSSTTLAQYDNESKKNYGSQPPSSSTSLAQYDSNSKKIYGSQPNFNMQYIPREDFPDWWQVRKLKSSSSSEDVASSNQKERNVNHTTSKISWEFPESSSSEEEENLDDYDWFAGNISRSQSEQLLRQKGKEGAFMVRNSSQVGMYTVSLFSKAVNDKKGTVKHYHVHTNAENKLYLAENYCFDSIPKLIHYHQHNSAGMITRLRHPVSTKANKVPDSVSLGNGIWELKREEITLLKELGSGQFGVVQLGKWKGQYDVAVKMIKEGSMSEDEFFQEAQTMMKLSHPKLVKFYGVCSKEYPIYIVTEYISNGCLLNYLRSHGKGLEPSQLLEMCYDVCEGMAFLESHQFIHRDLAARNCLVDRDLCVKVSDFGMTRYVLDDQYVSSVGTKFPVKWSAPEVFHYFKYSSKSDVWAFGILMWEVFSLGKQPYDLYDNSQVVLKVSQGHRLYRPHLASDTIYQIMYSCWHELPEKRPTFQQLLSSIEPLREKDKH
DDR2, sequence (Q16832 22-855, species assumed): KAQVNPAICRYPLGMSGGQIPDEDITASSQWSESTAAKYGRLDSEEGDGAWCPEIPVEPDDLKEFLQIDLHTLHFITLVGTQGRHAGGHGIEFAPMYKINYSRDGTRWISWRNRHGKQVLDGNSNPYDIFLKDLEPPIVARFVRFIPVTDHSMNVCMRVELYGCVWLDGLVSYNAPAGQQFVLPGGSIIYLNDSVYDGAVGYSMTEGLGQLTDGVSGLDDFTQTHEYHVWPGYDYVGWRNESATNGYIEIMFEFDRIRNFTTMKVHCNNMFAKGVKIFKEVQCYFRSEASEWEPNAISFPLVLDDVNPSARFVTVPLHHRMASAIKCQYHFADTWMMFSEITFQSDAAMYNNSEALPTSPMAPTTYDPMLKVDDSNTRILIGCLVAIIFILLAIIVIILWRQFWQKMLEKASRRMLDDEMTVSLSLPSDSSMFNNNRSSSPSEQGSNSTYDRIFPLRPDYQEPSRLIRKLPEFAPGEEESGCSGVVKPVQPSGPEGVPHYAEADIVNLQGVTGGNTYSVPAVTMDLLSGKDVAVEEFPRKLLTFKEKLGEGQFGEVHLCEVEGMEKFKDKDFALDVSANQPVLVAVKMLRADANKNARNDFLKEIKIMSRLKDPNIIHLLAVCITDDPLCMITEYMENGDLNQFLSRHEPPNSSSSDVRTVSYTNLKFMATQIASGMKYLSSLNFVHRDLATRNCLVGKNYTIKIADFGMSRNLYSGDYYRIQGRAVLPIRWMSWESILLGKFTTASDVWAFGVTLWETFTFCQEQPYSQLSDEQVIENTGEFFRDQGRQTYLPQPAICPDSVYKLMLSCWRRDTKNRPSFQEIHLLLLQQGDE
TNIK, sequence (Q9UKE5 whole entry, species assumed): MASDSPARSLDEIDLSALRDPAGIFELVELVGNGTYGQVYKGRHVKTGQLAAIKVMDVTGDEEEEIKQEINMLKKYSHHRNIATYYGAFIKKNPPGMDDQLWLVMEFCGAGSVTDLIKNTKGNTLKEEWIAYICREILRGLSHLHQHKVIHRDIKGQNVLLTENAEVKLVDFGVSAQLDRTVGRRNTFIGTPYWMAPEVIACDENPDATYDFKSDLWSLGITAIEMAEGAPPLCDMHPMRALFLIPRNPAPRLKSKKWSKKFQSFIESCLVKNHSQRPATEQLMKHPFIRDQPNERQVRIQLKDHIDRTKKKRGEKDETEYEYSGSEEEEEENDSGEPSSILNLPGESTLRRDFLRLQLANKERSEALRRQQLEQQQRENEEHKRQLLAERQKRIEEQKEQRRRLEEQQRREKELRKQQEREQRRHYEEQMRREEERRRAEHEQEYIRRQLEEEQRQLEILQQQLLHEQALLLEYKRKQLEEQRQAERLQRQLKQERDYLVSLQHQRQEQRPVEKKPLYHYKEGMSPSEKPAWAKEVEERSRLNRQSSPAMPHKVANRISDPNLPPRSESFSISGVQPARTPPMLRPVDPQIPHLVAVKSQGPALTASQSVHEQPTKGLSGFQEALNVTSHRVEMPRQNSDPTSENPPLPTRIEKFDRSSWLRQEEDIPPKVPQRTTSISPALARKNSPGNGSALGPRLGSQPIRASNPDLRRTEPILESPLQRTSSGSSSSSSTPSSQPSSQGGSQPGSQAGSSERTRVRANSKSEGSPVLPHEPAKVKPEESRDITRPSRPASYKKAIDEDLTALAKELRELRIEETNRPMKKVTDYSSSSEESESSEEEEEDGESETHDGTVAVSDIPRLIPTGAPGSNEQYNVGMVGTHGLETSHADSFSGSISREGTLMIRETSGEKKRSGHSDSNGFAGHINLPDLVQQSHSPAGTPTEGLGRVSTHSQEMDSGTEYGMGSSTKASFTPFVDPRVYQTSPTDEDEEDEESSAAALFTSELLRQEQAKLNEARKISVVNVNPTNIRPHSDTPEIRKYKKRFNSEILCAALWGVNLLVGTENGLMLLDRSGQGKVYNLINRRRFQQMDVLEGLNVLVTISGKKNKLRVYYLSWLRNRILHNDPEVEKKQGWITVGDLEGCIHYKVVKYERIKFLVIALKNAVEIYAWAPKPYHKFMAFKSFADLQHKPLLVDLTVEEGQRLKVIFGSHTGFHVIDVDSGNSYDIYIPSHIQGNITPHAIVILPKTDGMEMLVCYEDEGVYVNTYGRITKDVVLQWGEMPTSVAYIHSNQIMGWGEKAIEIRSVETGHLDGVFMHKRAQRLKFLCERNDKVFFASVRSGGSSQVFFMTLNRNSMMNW
Aurora B, sequence (Q96GD4 whole entry): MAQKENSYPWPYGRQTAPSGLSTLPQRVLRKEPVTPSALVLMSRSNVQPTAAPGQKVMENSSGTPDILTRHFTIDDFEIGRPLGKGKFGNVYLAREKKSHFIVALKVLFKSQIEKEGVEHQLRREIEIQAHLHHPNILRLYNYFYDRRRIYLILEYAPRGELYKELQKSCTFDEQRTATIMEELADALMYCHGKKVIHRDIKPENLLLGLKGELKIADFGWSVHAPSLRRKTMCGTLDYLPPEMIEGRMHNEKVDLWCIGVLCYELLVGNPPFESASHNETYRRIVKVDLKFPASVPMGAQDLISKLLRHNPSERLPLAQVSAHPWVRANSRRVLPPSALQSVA

Row | Compound | % Enzyme Activity (relative to DMSO controls) [1] | % Enzyme Activity (relative to DMSO controls) [2] | % Enzyme Activity (relative to DMSO controls) [3] | % Enzyme Activity (relative to DMSO controls) [4] | % Enzyme Activity (relative to DMSO controls) [5] | % Enzyme Activity (relative to DMSO controls) [6] | % Enzyme Activity (relative to DMSO controls) [7] | % Enzyme Activity (relative to DMSO controls) [8] | % Enzyme Activity (relative to DMSO controls) [9] | % Enzyme Activity (relative to DMSO controls) [10] | % Enzyme Activity (relative to DMSO controls) [11] | % Enzyme Activity (relative to DMSO controls) [12] | % Enzyme Activity (relative to DMSO controls) [13] | % Enzyme Activity (relative to DMSO controls) [14] | % Enzyme Activity (relative to DMSO controls) [15] | % Enzyme Activity (relative to DMSO controls) [16] | % Enzyme Activity (relative to DMSO controls) [17] | % Enzyme Activity (relative to DMSO controls) [18] | IC50 [19] | IC50 [20] | other results
1 | CC(C)(CCCCc1ccc(CCCCC(C)(C)C(=O)SCCNC(=O)CCNC(=O)[C@H](O)C(C)(C)COP(=O)(O)OP(=O)(O)OC[C@H]2O[C@@H](n3cnc4c(N)ncnc43)[C@H](O)[C@@H]2OP(=O)(O)O)cc1)C(=O)O [Compound I-1-CoA, 6-[4-(5-carboxy-5-methylhexyl)-phenyl]-2,2-dimethylhexanoic acid Coenzyme A ester] | 12.44% and 12.42% | 36.79% and 32.68% | 78.81% and 72.15% | 49.55% and 47.76% | 73.56% and 73.24% | 53.91% and 53.05% | 88.28% and 79.94% | 51.57% and 45.02% | 63.29% and 62.44% | 77.88% and 76.61% | 85.04% and 84.66% | 23.02% and 21.99% | 2.06% and −0.71% | 0.89% and 0.63% | 73.92% and 70.32% | 32.26% and 29.70% | 39.22% and 36.50% | 84.17% and 82.94% | 1.63e-05 M and 1.33e-05 M and 1.25e-05 M | 9.41e-06 M and 7.72e-06 M and 9.06e-06 M | IC50 [21]: 3.34e-06 M and 2.28e-06 M and 2.5e-06 M
2 | CC(C)(CCCCc1cccc(CCCCC(C)(C)C(=O)SCCNC(=O)CCNC(=O)[C@H](O)C(C)(C)COP(=O)(O)OP(=O)(O)OC[C@H]2O[C@@H](n3cnc4c(N)ncnc43)[C@H](O)[C@@H]2OP(=O)(O)O)c1)C(=O)O [Compound I-32-CoA, 6-[3-(5—Carboxy-5-methylhexyl)-phenyl]-2,2-dimethylhexanoic acid Coenzyme A Ester] | 13.04% and 11.95% | 33.27% and 30.67% | 48.46% and 46.83% | 49.54% and 43.87% | 49.53% and 49.21% | 35.05% and 34.20% | 29.98% and 25.40% | 88.39% and 80.61% | 23.69% and 22.51% | 47.31% and 45.01% | 17.17% and 15.90% | 28.56% and 27.35% | 3.21% and 1.59% | 35.98% and 34.99% | 51.10% and 43.67% | 33.02% and 32.84% | 70.02% and 66.13% | 52.06% and 51.61% | 5.07e-06 M and 5e-06 M and 6.03e-06 M | 5.02e-06 M and 4.22e-06 M and 3.33e-06 M | IC50 [21]: 9.88e-07 M and 1.22e-06 M and 1.44e-06 M

Reference: patent US20240398737A1, “FUNCTIONALIZED LONG-CHAIN HYDROCARBON MONO- AND DI-CARBOXYLIC ACIDS AND DERIVATIVES THEREOF, AND THEIR USE FOR THE PREVENTION OR TREATMENT OF DISEASE” (Espervita Therapeutics, Inc., priority 2021, published 2024)
